Assays:
[1] = target: T1, Human telomerase purified from telomerase-overexpressing HEK293T cells (Homo sapiens, UniProt O14746); assay: Direct (non-PCR) primer extension telomerase activity assay, purified telomerase; format: biochemical; conditions: purified telomerase
T1 construct: made in house; host or cells: HEK293T (telomerase-overexpressing)
Method: Primer-Extension Telomerase Activity Assays. […] ID NO: 1) (2 μM)].

[2] = test system: VA-13; assay: Cell viability, telomerase-negative cells; format: cell-based; conditions: VA-13, up to 100 μM
[3] = test system: MCF7 cells; assay: Cell viability (CellTiter-Glo), telomerase-positive cells; format: cell-based, human; conditions: Homo sapiens, read-out: IC50, loss of viability
Method: Cell Viability Measurements. MCF-7, HeLa, MDA-MB231 and A549 cells were cultured in DMEM media supplemented with 10% Fetal Bovine Serum (FBS), 1% pen/strep and with 5% CO2 and 37° C. Cells were plated in 96 well plates and allowed to attach for 24 h. Media was removed, and fresh media containing various concentrations of compound was added, and the plate was incubated for 24 h. The plate was removed from the incubator and allowed to equilibrate to room temperature for 30 min. 50 μl of freshly prepared CellTiter-Glo (Promega) reagent was added, and the plate was mixed on an orbital shaker for 10 min to induce cell lysis and stabilize luminescent signal. The luminescence was recorded on a PerkinElmer Enspire multimode plate reader.

[4] = target: T2, telomerase (MCF-7 cell lysates) (Homo sapiens, UniProt O14746); assay: TRAP assay in cell lysates (PCR-based telomerase activity assay); format: biochemical; conditions: TRAP assay in MCF7 cell lysate in vitro; read-out: IC50
T2 construct: endogenous in cells; host or cells: MCF-7
T2 sequence (O14746 whole entry): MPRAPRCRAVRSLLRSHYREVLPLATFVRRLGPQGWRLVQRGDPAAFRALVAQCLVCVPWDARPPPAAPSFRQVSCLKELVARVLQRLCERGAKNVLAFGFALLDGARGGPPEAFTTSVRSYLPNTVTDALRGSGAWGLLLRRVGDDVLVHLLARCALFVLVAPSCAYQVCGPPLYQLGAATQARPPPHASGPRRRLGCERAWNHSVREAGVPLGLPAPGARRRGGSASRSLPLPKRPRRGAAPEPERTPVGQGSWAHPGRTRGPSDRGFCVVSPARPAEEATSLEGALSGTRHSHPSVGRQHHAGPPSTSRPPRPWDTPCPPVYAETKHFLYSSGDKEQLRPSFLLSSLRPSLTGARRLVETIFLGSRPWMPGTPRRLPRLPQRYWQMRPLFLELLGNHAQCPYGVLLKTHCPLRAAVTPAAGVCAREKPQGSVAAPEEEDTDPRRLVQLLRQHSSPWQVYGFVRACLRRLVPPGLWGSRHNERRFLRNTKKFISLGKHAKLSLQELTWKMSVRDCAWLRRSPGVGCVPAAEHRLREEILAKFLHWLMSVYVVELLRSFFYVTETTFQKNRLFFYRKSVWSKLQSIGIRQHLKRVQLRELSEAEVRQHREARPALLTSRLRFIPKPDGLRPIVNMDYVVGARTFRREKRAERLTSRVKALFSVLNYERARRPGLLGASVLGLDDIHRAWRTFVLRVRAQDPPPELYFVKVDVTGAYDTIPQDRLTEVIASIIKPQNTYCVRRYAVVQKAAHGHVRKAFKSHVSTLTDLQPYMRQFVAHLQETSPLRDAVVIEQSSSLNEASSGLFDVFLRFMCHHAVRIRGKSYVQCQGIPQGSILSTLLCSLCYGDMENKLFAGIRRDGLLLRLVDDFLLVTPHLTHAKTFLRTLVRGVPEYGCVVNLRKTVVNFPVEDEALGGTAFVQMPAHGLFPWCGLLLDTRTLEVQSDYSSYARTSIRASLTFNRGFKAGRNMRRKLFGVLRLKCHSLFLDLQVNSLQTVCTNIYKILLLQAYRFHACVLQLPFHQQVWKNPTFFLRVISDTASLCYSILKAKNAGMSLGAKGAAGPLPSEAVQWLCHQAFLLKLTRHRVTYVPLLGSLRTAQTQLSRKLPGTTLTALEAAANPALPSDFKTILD
T2 sequence (O60832 whole entry partner): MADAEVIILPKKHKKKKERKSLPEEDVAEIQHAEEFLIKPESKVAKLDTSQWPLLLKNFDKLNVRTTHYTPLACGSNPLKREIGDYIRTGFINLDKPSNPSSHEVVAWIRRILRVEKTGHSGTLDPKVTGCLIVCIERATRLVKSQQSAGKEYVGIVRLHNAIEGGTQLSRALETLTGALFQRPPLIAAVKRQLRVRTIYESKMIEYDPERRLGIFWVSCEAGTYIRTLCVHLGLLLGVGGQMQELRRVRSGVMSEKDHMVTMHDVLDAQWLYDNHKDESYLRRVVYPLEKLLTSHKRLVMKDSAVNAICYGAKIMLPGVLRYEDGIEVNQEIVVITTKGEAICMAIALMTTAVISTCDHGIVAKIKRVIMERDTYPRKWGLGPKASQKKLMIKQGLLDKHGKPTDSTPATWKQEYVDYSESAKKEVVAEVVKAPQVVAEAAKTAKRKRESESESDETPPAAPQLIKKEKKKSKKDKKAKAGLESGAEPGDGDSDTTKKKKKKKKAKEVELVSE
T2 sequence (Q9NPE3 whole entry partner): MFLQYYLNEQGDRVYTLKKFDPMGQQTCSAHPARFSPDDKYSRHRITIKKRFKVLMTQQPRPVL
T2 sequence (Q9NX24 whole entry partner): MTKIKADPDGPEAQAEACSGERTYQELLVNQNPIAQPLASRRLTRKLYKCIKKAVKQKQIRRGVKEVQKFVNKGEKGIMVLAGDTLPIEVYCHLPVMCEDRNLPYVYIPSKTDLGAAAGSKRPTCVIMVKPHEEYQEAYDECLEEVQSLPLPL
T2 sequence (Q9NY12 whole entry partner): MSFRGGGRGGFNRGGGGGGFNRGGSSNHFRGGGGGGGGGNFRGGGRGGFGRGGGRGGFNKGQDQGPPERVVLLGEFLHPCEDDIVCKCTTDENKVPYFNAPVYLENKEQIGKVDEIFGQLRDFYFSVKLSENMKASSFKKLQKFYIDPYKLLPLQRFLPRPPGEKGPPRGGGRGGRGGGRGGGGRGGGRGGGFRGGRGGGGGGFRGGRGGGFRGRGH
T2 sequence (Q9BUR4 whole entry partner): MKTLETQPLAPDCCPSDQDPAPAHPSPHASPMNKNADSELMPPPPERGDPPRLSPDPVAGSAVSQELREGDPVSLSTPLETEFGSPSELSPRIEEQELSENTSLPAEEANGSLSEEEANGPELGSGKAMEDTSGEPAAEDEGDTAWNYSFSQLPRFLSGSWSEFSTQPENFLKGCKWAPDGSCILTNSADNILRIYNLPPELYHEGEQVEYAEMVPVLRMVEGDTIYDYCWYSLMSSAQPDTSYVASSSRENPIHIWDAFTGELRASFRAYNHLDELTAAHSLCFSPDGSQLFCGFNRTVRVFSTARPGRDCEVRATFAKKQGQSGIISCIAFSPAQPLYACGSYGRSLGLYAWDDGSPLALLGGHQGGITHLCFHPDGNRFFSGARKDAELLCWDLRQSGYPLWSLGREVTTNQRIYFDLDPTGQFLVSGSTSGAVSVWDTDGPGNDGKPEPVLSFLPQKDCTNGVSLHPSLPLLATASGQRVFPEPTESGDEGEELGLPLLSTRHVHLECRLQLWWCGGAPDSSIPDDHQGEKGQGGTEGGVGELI
Excerpt: In developing a preliminary structural activity relationship (SAR) for the chrologs, we divided the structure of the pyran into four main components: (1)C-2 substituents (carboxylic acid of chrolactomycin); (2) C-6 substituents (chrolactomycin macrolide loop); (3) C-3 substituents (fused γ-lactone of chrolactomycin) and (4) inclusion of the exocyclic methylene group. We carried out systematic modifications of each structural unit and evaluated the effects on telomerase activity as measured by a PCR-based telomerase activity assay (TRAP assay).^16
Telomeric Repeat Amplification Protocol Assay. The telomeric repeat amplification protocol (TRAP) assay was performed using the TRAPeze RT Telomerase Detection Kit (EMD Millipore) and iTaq DNA polymerase (Bio-Rad) according to the manufacturer's protocol.
Cell Lysate TRAP Analysis. MCF-7, HeLa, ACHN, MDA-MB231 and A549 cells were cultured in DMEM media supplemented with 10% Fetal Bovine Serum (FBS), 1% pen/strep and with 5% CO2 and 37° C. Cells were plated in 2×T75 flasks and cultured for 3 days. Flasks were rinsed twice with PBS and treated with 0.05% trypsin-EDTA (Thermo Fisher) to detach cells. […] Cell extracts were transferred to microcentrifuge tubes, 200 μl/tube, and centrifuged at 12,000×g for 20 min at 4° C. to remove cell debris. Stock solutions of compounds were made in DMSO with a concentration of 100 mM and a […] dilution was performed in DMSO in a 96-well plate to produce compound solutions of 100, 10, 1, 0.1, 0.01, and 0.001 mM (1000× of the final concentration). The 1000× stock solutions of the compound samples were transferred to a 96-well plate using the Echo 550 (Labcyte) and then diluted with the cell extracts to yield final compound concentrations of 100, 10, 1, 0.1, 0.01, and 0.001 μM. The plate was covered and shaken at room temperature for 30 min. For TRAPeze reactions, a “master mix” was prepared according to the TRAPeze protocol, containing 5 μl of the TRAPeze reaction mix; 0.4 μl Taq polymerase; 17.6 μl PCR grade, nuclease-free water. The master mix and treated cell extracts were transferred using the Mosquito Crystal Liquid Handling System (TTP Labtech) into separate wells in a white, 384-well RT-PCR plate. Each well contained 1.2 μl of the master mix and 1.2 μl of the treated cell extract to give a final volume of 2.4 μl, with two duplicates for each sample. The RT-PCR plate was then sealed and centrifuged for 5 min. A sample containing only CHAPS Lysis Buffer was included as negative control. The TSR8 standards were included to generate a standard curve. Samples were amplified in a CFW384 RT-PCR (BioRad) detection system with PCR parameters of 30 min at 30° C. for 1 cycle, 2 min at 95° C. for 1 cycle, and then 45 cycles of 15 s at 94° C., 60 s at 59° C., and 10 s at 45° C. Real-time fluorescent data was obtained during the 10 s at 45° C. step. The number of cycles at which the fluorescence level reached a threshold (Ct) was averaged between the duplicates for each sample. Using a calibration curve obtained from the TSR8 standards, a linear equation was obtained to convert the Ct values into arbitrary telomerase activity units, which were plotted as a function of compound concentration to construct dose-response curves and calculate IC50.

[5] = test system: N-acetyl cysteine (NAC); assay: physchem; format: physicochemical; conditions: pH 7.4
Method: (§1) N-Acetyl Cysteine, N-Acetyl Lysine and N-Acetyl Serine Kinetic Studies. Assay was conducted as described with minor modifications.^81-84 Briefly, a 1 mM stock solution of NU-1 with internal standard (phenacetin) in DMSO was added to a 50 mM solution of either N-acetyl cysteine, N-acetyl lysine or N-acetyl serine in 67 mM phosphate buffer (pH 7.4), as well as added to a solution of 67 mM phosphate buffer (pH 7.4) control. Samples were taken every 2 min for 2 h and quenched immediately with MeOH and centrifuged upon sampling. Samples were placed on a Waters Acquity UPLC-MS system and measured for the ratio of NU-1 to internal standard intensity to calculate the amount of NU-1 present at each time point relative to the amount of NU-1 at the first injection of the compound in buffer. Assay was conducted in triplicate.

[6] = Schiff-base measurement with glycine; format: physicochemical; conditions: incubation with glycine
Method: Schiff-Base Measurement. A 1 mM stock solution of NU-1 in DMSO-d6 was added to a solution of 5 mM solution of glycine in D2O in an NMR tube. The mixture was analyzed by ^1H NMR over 48 hours to analyze formation of Schiff-bases with the ketone of NU-1.

[7] = target: T3, telomerase in MCF7 cells (Homo sapiens, UniProt O14746); assay: Compound washout TRAP analysis; format: cell-based
T3 construct: endogenous in cells; host or cells: MCF-7
T3 sequence (O14746 whole entry): as the sequence (O14746 whole entry) above
T3 sequence (O60832 whole entry partner): as the sequence (O60832 whole entry partner) above
T3 sequence (Q9NPE3 whole entry partner): as the sequence (Q9NPE3 whole entry partner) above
T3 sequence (Q9NX24 whole entry partner): as the sequence (Q9NX24 whole entry partner) above
T3 sequence (Q9NY12 whole entry partner): as the sequence (Q9NY12 whole entry partner) above
T3 sequence (Q9BUR4 whole entry partner): as the sequence (Q9BUR4 whole entry partner) above
Method: Compound Washout TRAP analysis. MCF-7 cells were plated in 96 well plates and allowed to attach for 24 h. Media was removed, and fresh media containing various concentrations of compound was added, and the plate was incubated for 24 h. Media was removed, cells were washed 2 times with PBS, and fresh media without compound was added. Cells were incubated at 37° C. for an additional “X” hours. […] The cell extract was then centrifuged at 12,000 g for 20 min at 4° C. to remove cell debris. Note: “fresh” media constitutes media supplemented with 10% Fetal Bovine Serum (FBS) and 1% pen/strep that has not been previously used for cell culture (e.g., not conditioned media”). TRAP analysis was conducted as above.

[8] = N-acetyl serine and N-acetyl lysine reactivity; format: physicochemical; conditions: HPLC
Method: as §1

T1 sequence (O14746 whole entry): as the sequence (O14746 whole entry) above
T1 sequence (O60832 whole entry partner): as the sequence (O60832 whole entry partner) above
T1 sequence (Q9NPE3 whole entry partner): as the sequence (Q9NPE3 whole entry partner) above
T1 sequence (Q9NX24 whole entry partner): as the sequence (Q9NX24 whole entry partner) above
T1 sequence (Q9NY12 whole entry partner): as the sequence (Q9NY12 whole entry partner) above

- time to complete inhibition ([1]; 100 μM): ~6 h
- inhibition of telomere repeat synthesis ([1]; in words): low-micromolar range
- IC50 [3]: 27 µM
- IC50 [4]: 0.09 µM
- half-life at 1 μM [5]: 42 min
- ketone-Schiff base formation [6]: no ketone-Schiff base formation
- telomerase activity after washout ([7]; MCF7 cells washed, 4 h recovery): remained blocked
- telomerase activity after washout ([7]; washed, fresh media, 24 h): did not restore
- amino acid adducts [8]: No amino acid adducts were found
Structure (SMILES): C=C1C(=O)[C@](C)(C(=O)OC)[C@H](CCc2cn(Cc3ccc(F)cc3F)nn2)O[C@@H]1C [NU-1, methyl (2S,3R,6R)-2-(2-(1-(2,4-difluorobenzyl)-1H-1,2,3-triazol-4-yl)ethyl)-3,6-dimethyl-5 methylene-4-oxotetrahydro-2H-pyran-3-carboxylate]
- effect on viability [2]: did not affect viability

Source: patent US11518750B2, “3-methylideneoxan-4-one compounds and substituted derivatives thereof as inhibitors of telomerase” (NORTHWESTERN UNIVERSITY, priority 2019, dated 2022)
